From PubChem BioAssay (NCI)
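A five-concentration, 48-hour dose response in 96-well plates underlies each endpoint, interpolated linearly between surrounding concentrations. Here, GI50 denotes the concentration required for 50% inhibition of growth. TGI denotes the concentration required for complete inhibition of growth.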

Experiments:
Assay in all cases: growth of human tumour cells (NCI), 48 h
HT29 colon = system: HT29 colon
786-0 renal = system: 786-0 renal
UACC-257 melanoma = system: UACC-257 melanoma
SN12C renal = system: SN12C renal
HCC-2998 colon = system: HCC-2998 colon
SK-MEL-2 melanoma = system: SK-MEL-2 melanoma
OVCAR-4 ovarian = system: OVCAR-4 ovarian
HOP-62 NSCLC = system: HOP-62 NSCLC
MALME-3M melanoma = system: MALME-3M melanoma
SF-268 CNS = system: SF-268 CNS

| Structure (SMILES) | GI50 (HT29 colon) [µM] | TGI (HT29 colon) [µM] | GI50 (786-0 renal) [µM] | GI50 (UACC-257 melanoma) [µM] | TGI (UACC-257 melanoma) [µM] | GI50 (SN12C renal) [µM] | TGI (SN12C renal) [µM] | GI50 (HCC-2998 colon) [µM] | TGI (HCC-2998 colon) [µM] | GI50 (SK-MEL-2 melanoma) [µM] | TGI (SK-MEL-2 melanoma) [µM] | GI50 (OVCAR-4 ovarian) [µM] | TGI (OVCAR-4 ovarian) [µM] | GI50 (HOP-62 NSCLC) [µM] | TGI (HOP-62 NSCLC) [µM] | GI50 (MALME-3M melanoma) [µM] | TGI (MALME-3M melanoma) [µM] | GI50 (SF-268 CNS) [µM] | TGI (SF-268 CNS) [µM] | TGI (786-0 renal) [µM] |
| --- | --- | --- | --- | --- | --- | --- | --- | --- | --- | --- | --- | --- | --- | --- | --- | --- | --- | --- | --- | --- |
| C[C@H]1CCC/C=C/C2CC(OC(=O)CN(C)C)CC2C(OC(=O)CN(C)C)/C=C/C(=O)O1 (some centres not stated) | 0.342 | 3.8 | 0.107 | 0.342 | 27.5 | 0.391 | 8.33 | 0.215 | 0.537 | 0.224 | 3.79 | 0.349 | 34.2 | 2.51 | 23.2 | 0.171 | 0.371 | 0.484 | > 100 | – |
| CN1CCN(CCCOc2cccc3nc(Nc4cc(Cl)cc(Cl)c4)ccc23)CC1 | 1.41 | 2.78 | 1.49 | 1.97 | 3.54 | 3.74 | 13.9 | 1.64 | 3.17 | 1.79 | 3.54 | 2.55 | 8.14 | 1.37 | 2.81 | 1.92 | 3.7 | 1.69 | 3.38 | 2.94 |
| CC(C)N(C(=O)C12C3C4C1C1C2C3C41C(=O)C(C)(C)C)C(C)C (configuration not stated) | – | > 100 | – | – | > 100 | – | > 100 | – | > 100 | – | > 100 | – | > 100 | – | > 100 | – | > 100 | – | > 100 | > 100 |
| Nc1nc(=O)n(C2CC(O)C(CO)O2)cc1F (configuration not stated) | < 0.0489 | > 100 | 0.0589 | > 100 | > 100 | 0.199 | > 25.8 | 0.000943 | > 26.4 | – | > 100 | 47.7 | > 100 | – | > 100 | > 100 | > 100 | 0.00946 | > 100 | > 100 |
| CNC(=O)c1cc(Oc2ccc3nc(NC(=O)Nc4ccc(CN5CCOCC5)c(C(F)(F)F)c4)sc3c2)ccn1 | 2.14 | 5.5 | 2.22 | 2.16 | 5.59 | 2.58 | 9.36 | 3 | 7.11 | 2.74 | 7.81 | 1.72 | 5.64 | 2.82 | 10.1 | 1.44 | 3.98 | 3.22 | 14.6 | 4.32 |
| COc1ccc(-c2nn(-c3cccc(Cl)c3)cc2/C=C2\NC(=S)N(c3ccc(Cl)cc3)C2=O)cc1 | 4.99 | 10.6 | 5.57 | 3.95 | 8.55 | 5.48 | > 25 | 7.93 | > 25 | 4.15 | 9.61 | 3.54 | 7.45 | 3.91 | 7.83 | 5.03 | 11.3 | 7.41 | > 25 | > 25 |
